Measurements as given in patent publication US8293261B2, “Intravascular implant” (Terumo Kabushiki Kaisha, priority 2005, dated 2012).

Tested on: human vascular smooth muscle cells
Assay type: cell-based
Details: for IC50: human vascular smooth muscle cells, 48 hours with substance, WST-1 absorbance at 450 nm
Experimental: Substances indicated in Table 1 were used to carry out a cell cytotoxicity test using human vascular smooth muscle cells.
More particularly, human vascular smooth muscle cells were implanted into individual wells of a 96-well microtitor plate along with a culture solution (commercial name: SmGM-2 Bullet kit, made by Cambrex Corporation), followed by cultivation in a carbon dioxide gas incubator at 37° C. for 48 hours. The culture solution dissolving MgCl2 that was used as a chemical substance to be tested was added thereto in every […] so that a final concentration was at 1×10^−7 to 10^−1 M, followed by cultivation for further 48 hours.
Next, WST-1 (La Roche Ltd.) was added, followed by cultivation for 4 hours. WST-1 taken in the human vascular smooth muscle cells was extracted, and the absorbance at 450 nm of the resulting extract was measured by means of a microreader (commercial name: iEMS reader MF, made by Labsystems Inc.). It will be noted that WST-1 taken in the human vascular smooth muscle cells emits light when oxidized and reduced by means of an electron transmission system of mitochondria. Accordingly, WST-1 emits light by reaction only with living cells.
A graph was made wherein an abscissa indicates a concentration of a chemical substance to be subjected to the cytotoxicity test and an ordinate indicates a ratio of a quantity of emitted light of cells subjected to treatment with a chemical substance to be tested to a quantity of emitted light of non-treated cells for reference. The degree of cell cytotoxicity was quantified as a concentration of a chemical substance (IC50 value) at which a ratio of a quantity of a dye taken in the treated cells to a quantity of a dye taken in non-treated cells was at 50%.
Such a test was carried out with respect to other types of chemical substances (NdCl2, GdCl2, Ycl3, CrCl2, and NiCl2) to be subjected to the cytotoxicity test to likewise obtain IC50 values.

Structure (SMILES)	cell cytotoxicity (in words)	IC50 [mM]
[Cl][Gd][Cl] [GdCl2]	very low	81
[Cl][Ni][Cl] [NiCl2]	–	0.75
[Cl-].[Cl-].[Nd+2] [NdCl2]	very low	74
[Cl-].[Cl-].[Cl-].[Y+3] [Ycl3]	–	0.36
[Cl][Cr][Cl] [CrCl2]	–	0.11
[Cl-].[Cl-].[Mg+2] [MgCl2]	very low	34
